Consider one compound from US7238493B2, “Acetylation of pRb by p300 assay method for compounds which modulate this process” (The University Court of the University of Glasgow, priority 2000, dated 2007).

The assay concerns pRb/MDM2 complex. Description: pRb immunoprecipitation and anti-MDM2 immunoblot from TSA-treated T98G cells. It is filed as cell-based. The note with it: TSA 5 μM for 18-20 h, FIG. 4g. How it is done:
Conversely, conditions that enhance acetylation would be expected to promote the interaction of pRb with MDM2. To this end, we treated T98G cells with trichostatin A (TSA), which blocks histone deacetylase (HDAC) activity 18 and thereafter assessed the interaction between pRb and MDM2.
For immunoprecipitation of endogenous acetylated pRb, cell pellets collected from SAOS2, U2OS, T98G, A31, and HEK293 cells were lysed in IPH buffer (50 mM Tris pH 8.0, 150 mM NaCl, 0.5% NP-40, protease inhibitor cocktail (Roche), 5mM EDTA, 5 μM TSA (Sigma)). The protein concentration of the extracts was determined by Bradford assay (BioRad). Protein-A-agarose was first incubated with anti-Rb antibody IF8 and C15 for 1-2 h at 4 C. […] Proteins bound to the beads were elute with 3×SDS loading buffer and analysed by Western blotting using appropriated antibodies. […]
Domains in E1A for p300-Dependent Acetylation of pRb and Acetylated pRb Binds to MDM2. • a) In vitro acetylation assay in which Flag-tagged p3001135-2414 (0.3 μg) together with GST-pRb (2 μg) was incubated with either wild-type GST-E1A, GST-Δ36 or GST-pm928 (1 μg) as indicated. The effect of the buffer (track 5) or GST (1 μg; track 1) alone was also assessed. The quantification of the level of p300 autoacetylation (b) and pRb acetylation (c) in the presence of the E1A derivatives is shown. […]

SMILES strings stand for the structures. Entries after “also recorded” stand apart in the source; their conditions may differ.

As for `CC(/C=C/C(=O)NO)=C\[C@@H](C)C(=O)c1ccc(N(C)C)cc1` [TSA, trichostatin A], the “interaction between pRb and MDM2 (pRb/MDM2 complex in pRb immunoprecipitate)” value is “presence of MDM2 in the pRb immunocomplex; also recorded: clearly detectable; also recorded: augments the interaction between pRb and MDM2”.
